Test results published in patent US6770133B2, “Stable crystal of thiazolidinedione derivative and process for producing the same” (Kyorin Pharmaceutical Co., Ltd., priority 2000, dated 2004).

Key:
[1] = M. Nomura et al, Bioorg. Med. Chem. Lett., 9 (1999) 533-538; cited from earlier work
[2] = Thermal analysis (thermal stability of the crystals); format: physicochemical
Excerpt: Using the thermal analysis apparatus (Rigaku Denki; TAS-200), the thermal stability of the crystals were examined.

[3] = Hygroscopicity of the crystals; format: physicochemical
[4] = thermal analysis apparatus Rigaku Denki TAS-200

endothermic peak [2, 4] [°C]	thermal stability compared with the conventional crystal ([2]; conclusion from thermal analysis)	endothermic phenomena observed from (onset) [2, 4] [°C]	hygroscopicity [3]	Compound	glucose-lowering activity [1]
				COc1ccc(CC2SC(=O)NC2=O)cc1C(=O)NCc1ccc(C(F)(F)F)cc1 (stereo not drawn) [KRP-297, 5-[(2,4-dioxothiazolidin-5-yl)methyl]-2-methoxy-N-[[4-(trifluoromethyl)phenyl]methyl]benzamide]	very excellent glucose-lowering activity
186.3				COc1ccc(CC2SC(=O)NC2=O)cc1C(=O)NCc1ccc(C(F)(F)F)cc1 (stereo not drawn) [conventional crystals, 5-[(2,4-dioxothiazolidin-5-yl)methyl]-2-methoxy-N-[[4-(trifluoromethyl)phenyl]methyl]benzamide, reference compound]	
196.2	more thermally stable	194.8	no hygroscopicity	COc1ccc(CC2SC(=O)NC2=O)cc1C(=O)NCc1ccc(C(F)(F)F)cc1 (stereo not drawn) [novel crystal, 5-[(2,4-dioxothiazolidin-5-yl)methyl]-2-methoxy-N-[[4-(trifluoromethyl)phenyl]methyl]benzamide]	
